Measurements from patent US20250222146A1, “Radiopharmaceuticals Targeting Somatostatin Receptor 2 and Uses Thereof” (RayzeBio, Inc., priority 2023, published 2025).
Numbered stars: 1 amine (or outer) side, 2 acyl side, 3 side chain; on linkers, the order of the positions; unused ones are H or OH. Square brackets hold non-standard residues; d marks the D form. Side chains are listed from the residue outwards. Peptide text beside a SMILES is read from it. * marks the point of attachment. DOTA(Lu)NH(CH2)6NHCOCH2 = O=C(CN1CCN2CCN3CCN(CC1)CC(=O)[O][Lu]([O]C(=O)C2)[O]C(=O)C3)NCCCCCCNC(=O)C*; DOTA(Lu) = O=C1CN2CCN3CCN(CC(=O)*)CCN(CC2)CC(=O)[O][Lu]([O]1)[O]C(=O)C3; X3 = O=C(O)CN1CCN(CC(=O)O)CCN(CC(=O)NCCCCCCNC(=O)C*)CCN(CC(=O)O)CC1; Ala(piperidin-4-yl) = O=C([C@H](CC1CCN([*:3])CC1)N[*:1])[*:2]; dTrp(βS-Me) = C[C@@H](c1c[nH]c2ccccc12)[C@@H](N)C(=O)O; βMeTrp(2S,3R) = C[C@H](c1c[nH]c2ccccc12)[C@H](N)C(=O)O; dTpi = O=C(O)[C@H]1Cc2c([nH]c3ccccc23)CN1; 3Pal = N[C@@H](Cc1cccnc1)C(=O)O; 4Pal = N[C@@H](Cc1ccncc1)C(=O)O; Gly(cPr) = N[C@H](C(=O)O)C1CC1; NMehCys = CN[C@@H](CCS)C(=O)O; NMeK = CN[C@@H](CCCCN)C(=O)O; Inp = O=C(O)C1CCNCC1

target: SSTR2 (Homo sapiens, UniProt P30874); test: SSTR binding affinity by radioligand binding competition assay ([125I]-Tyr11-Somatostatin, membrane extracts); details: radioligand competition, [125I]-Tyr11-Somatostatin 0.1 nM, membrane extracts; Ki from IC50 by Cheng Prusoff; read-out: SSTR2 Ki
Protocol: Macrocyclic peptides in this invention were tested for binding to SSTR protein by a radioligand binding competition assay. For radioligand binding assay, competition binding is performed in duplicate in the wells of a 96 well plate containing binding buffer (HEPES 25 mM pH 7.4, MgCl2 5 mM, CaCl2 1 mM, BSA 0.5%, Saponine 10 μg/ml)), membrane extracts (0.6 μg protein/well), radiotracer ([125I]-Tyr11-Somatostatin, Perkin Elmer NEX389) and test compound. Nonspecific binding is determined by co-incubation with 200-fold excess of cold competitor (SST28). The samples are incubated in a final volume of 0.1 ml for 60 min at room temperature and then filtered over UniFilter-96 GF/C (Revvity 6055690) filter plates. Filters are washed six times with 0.5 ml of ice-cold washing buffer (HEPES 25 mM pH 7.4, MgCl2 5 mM, CaCl2 1 mM) and 50 μl of Microscint 20 (Packard) are added in each well. The plates are incubated 15 min on an orbital shaker and then counted with a TopCount™ for 1 min/well. For IC50 to Ki determination, the Cheng Prusoff equation is used: Ki=IC50/(1+ [tracer]/Kd). [Tracer] is 0.1 nM as mentioned above.

Sequence of SSTR2 (P30874 whole entry): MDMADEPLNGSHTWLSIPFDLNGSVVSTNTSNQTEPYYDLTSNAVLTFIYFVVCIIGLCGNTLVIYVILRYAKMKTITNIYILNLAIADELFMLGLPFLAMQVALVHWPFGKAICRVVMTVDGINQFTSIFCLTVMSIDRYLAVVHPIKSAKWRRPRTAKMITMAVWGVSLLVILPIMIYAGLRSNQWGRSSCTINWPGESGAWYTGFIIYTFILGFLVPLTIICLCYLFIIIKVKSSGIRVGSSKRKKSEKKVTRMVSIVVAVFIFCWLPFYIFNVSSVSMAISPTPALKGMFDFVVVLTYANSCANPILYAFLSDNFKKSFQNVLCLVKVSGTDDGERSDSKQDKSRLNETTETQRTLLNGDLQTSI

Structure (SMILES)	Ki
CC(C)[C@@H]1NC(=O)[C@H](CCCCN)NC(=O)[C@@H](Cc2c[nH]c3ccccc23)NC(=O)[C@H](Cc2ccc(O)cc2)NC(=O)[C@H](CCSCC(=O)NCCCCCCNC(=O)CN2CCN3CCN4CCN(CC2)CC(=O)[O][Lu]([O]C(=O)C3)[O]C(=O)C4)N(C)C(=O)[C@H](C2CC2)NC1=O [RB-0005247] (cyclo([Gly(cPr)][NMehCys](DOTA(Lu)NH(CH2)6NHCOCH2)Y[dW]KV))	3.33 to 10 nM
C[C@@H]1NC(=O)[C@H]([C@@H](C)O)NC(=O)[C@H](CC2CCNCC2)NC(=O)[C@@H]([C@@H](C)c2c[nH]c3ccccc23)NC(=O)[C@H](Cc2ccc(O)cc2)NC(=O)[C@H](CCSCC(=O)NCCCCCCNC(=O)CN2CCN3CCN4CCN(CC2)CC(=O)[O][Lu]([O]C(=O)C3)[O]C(=O)C4)N(C)C1=O [RB-0005807] (cyclo(A[NMehCys](DOTA(Lu)NH(CH2)6NHCOCH2)Y[dTrp(βS-Me)][Ala(piperidin-4-yl)]T))	< 1 nM
C[C@H](c1c[nH]c2ccccc12)[C@@H]1NC(=O)[C@H](Cc2ccc(O)cc2)NC(=O)[C@H](CCSCC(=O)NCCCCCCNC(=O)CN2CCN3CCN4CCN(CC2)CC(=O)[O][Lu]([O]C(=O)C3)[O]C(=O)C4)N(C)C(=O)[C@H](Cc2ccccc2)NC(=O)[C@H]([C@@H](C)O)NC(=O)[C@H](CCCCN)NC1=O [RB-0006019] (cyclo(F[NMehCys](DOTA(Lu)NH(CH2)6NHCOCH2)Y[βMeTrp(2S,3R)]KT))	< 1 nM
C[C@@H](O)[C@@H]1NC(=O)[C@H](CC2CCNCC2)NC(=O)[C@@H]([C@@H](C)c2c[nH]c3ccccc23)NC(=O)[C@H](Cc2ccc(O)cc2)NC(=O)[C@H](CCCCNC(=O)CCC2C(=O)[O][Ga]3[O]C(=O)CN4CCN(CCN2CC4)CC(=O)[O]3)N(C)C(=O)[C@H](Cc2ccccc2)NC1=O (mixture of isomers) [RB-0006285]	1 to 3.33 nM
C[C@@H](O)[C@@H]1NC(=O)[C@H](CCCCN)NC(=O)[C@@H]([C@@H](C)c2c[nH]c3ccccc23)NC(=O)[C@H](Cc2ccncc2)NC(=O)[C@H](CCSCC(=O)NCCCCCCNC(=O)CN2CCN3CCN4CCN(CC2)CC(=O)[O][Lu]([O]C(=O)C3)[O]C(=O)C4)N(C)C(=O)[C@H](Cc2ccccc2)NC1=O [RB-0003381] (cyclo([4Pal][dTrp(βS-Me)]KTF[NMehCys](DOTA(Lu)NH(CH2)6NHCOCH2)))	< 1 nM
C[C@@H](O)[C@@H]1NC(=O)[C@H](CCCCN)NC(=O)[C@@H](Cc2c[nH]c3ccccc23)NC(=O)[C@H](Cc2ccc(O)cc2)NC(=O)[C@H](CCSCC(=O)NCCCCCCNC(=O)CN2CCN3CCN4CCN(CC2)CC(=O)[O][Lu]([O]C(=O)C3)[O]C(=O)C4)N(C)C(=O)CNC1=O [RB-0004819] (cyclo(G[NMehCys](DOTA(Lu)NH(CH2)6NHCOCH2)Y[dW]KT))	< 1 nM
C[C@@H](O)[C@@H]1NC(=O)[C@H](CC2CCNCC2)NC(=O)[C@@H]([C@@H](C)c2c[nH]c3ccccc23)NC(=O)[C@H](Cc2ccc(O)cc2)NC(=O)[C@H](CCCCNC(=O)C2CCN(C(=O)CN3CCN4CCN5CCN(CC3)CC(=O)[O][Lu]([O]C(=O)C5)[O]C(=O)C4)CC2)N(C)C(=O)[C@H](Cc2ccccc2)NC1=O [RB-0006452] (cyclo(F[NMeK]([Inp-DOTA(Lu)])Y[dTrp(βS-Me)][Ala(piperidin-4-yl)]T))	1 to 3.33 nM
C[C@@H](O)[C@@H]1NC(=O)[C@H](CC2CCNCC2)NC(=O)[C@H]2Cc3c([nH]c4ccccc34)CN2C(=O)[C@H](Cc2ccc(O)cc2)NC(=O)[C@H](CCCCNC(=O)CN2CCN3CCN4CCN(CC2)CC(=O)[O][Lu]([O]C(=O)C3)[O]C(=O)C4)N(C)C(=O)[C@H](Cc2ccccc2)NC1=O [RB-0006213] (cyclo(F[NMeK](DOTA(Lu))Y[dTpi][Ala(piperidin-4-yl)]T))	33.3 to 100 nM

same assay, conditions: read-out: SSTR2 Ki

Ki	Structure (SMILES)
< 1 nM	CC(C)[C@@H]1NC(=O)[C@H](CCCCN)NC(=O)[C@@H](Cc2c[nH]c3ccccc23)NC(=O)[C@H](Cc2ccc(O)c(O)c2)NC(=O)[C@H](C)N(C)C(=O)[C@H](Cc2ccccc2)NC1=O [RB-0002595]
< 1 nM	C[C@@H](O)[C@@H]1NC(=O)[C@H](CCCCN)NC(=O)[C@@H](Cc2c[nH]c3ccccc23)NC(=O)[C@H](Cc2ccc(O)cc2)NC(=O)[C@H](C)N(C)C(=O)[C@H](Cc2ccccc2)NC1=O [RB-0002594]
1 to 3.33 nM	C[C@@H](O)[C@@H]1NC(=O)[C@H](CCCCN)NC(=O)[C@@H]([C@@H](C)c2c[nH]c3ccccc23)NC(=O)[C@H](Cc2ccncc2)NC(=O)[C@H](CCSCC(=O)NCCCCCCNC(=O)CN2CCN(CC(=O)O)CCN(CC(=O)O)CCN(CC(=O)O)CC2)N(C)C(=O)[C@H](Cc2cccnc2)NC1=O [RB-0003407] (cyclo([3Pal][NMehCys](X3)[4Pal][dTrp(βS-Me)]KT))
